# From the supplement of paper PMC10307832
# How the values were obtained:
# Assay in all cases: relative viability (nuclei count vs DMSO), 5 days (fraction); higher = more cells survive
# NCI-H1944 = test system: NCI-H1944
# Procedure, shortened: (§1)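 The day after seeding in 1536-well plates, lung cancer cell lines were treated by pin tool with a single drug, or with a fixed anchor-drug dose together with five library-drug doses (not always all listed) in √10 steps. After 5 days, a combined fix-and-stain solution (final 0.05% Triton X-100, 1% formaldehyde, 1 ug/ml Hoechst) was added. Nuclei counted on 4× images gave relative viability as treated counts over vehicle counts, reported as the median of duplicate plates.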
# HOP-62 = test system: HOP-62
# Procedure, shortened: as §1
# A-427 = test system: A-427
# Procedure, shortened: as §1
# PC-3 [JPC-3] = test system: PC-3 [JPC-3]
# Procedure, shortened: as §1
# SK-MES-1 = test system: SK-MES-1
# Procedure, shortened: as §1
# NCI-H3122 = test system: NCI-H3122
# Procedure, shortened: as §1
# NCI-H596 = test system: NCI-H596
# Procedure, shortened: as §1
# NCI-H1993 = test system: NCI-H1993
# Procedure, shortened: as §1
# NCI-H2009 = test system: NCI-H2009
# Procedure, shortened: as §1
# NCI-H2170 = test system: NCI-H2170
# Procedure, shortened: as §1
# NCI-H322M = test system: NCI-H322M
# Procedure, shortened: as §1
# LXF-289 = test system: LXF-289
# Procedure, shortened: as §1
# ABC-1 = test system: ABC-1
# Procedure, shortened: as §1
# LK-2 = test system: LK-2
# Procedure, shortened: as §1
# HARA = test system: HARA
# Procedure, shortened: as §1
# NCI-H2228 = test system: NCI-H2228
# Procedure, shortened: as §1
# NCI-H1792 = test system: NCI-H1792
# Procedure, shortened: as §1
# EMC-BAC-2 = test system: EMC-BAC-2
# Procedure, shortened: as §1
# SW 1573 = test system: SW 1573
# Procedure, shortened: as §1
# NCI-H727 = test system: NCI-H727
# Procedure, shortened: as §1
structure (smiles),measurement,setting,value
CC(=O)O[C@@]12CO[C@@H]1C[C@H](O)[C@@]1(C)C(=O)[C@H](O)C3=C(C)[C@@H](OC(=O)[C@H](O)[C@@H](NC(=O)OC(C)(C)C)c4ccccc4)C[C@@](O)([C@@H](OC(=O)c4ccccc4)[C@H]21)C3(C)C [Docetaxel] + CS(=O)(=O)CCNCc1ccc(-c2ccc3ncnc(Nc4ccc(OCc5cccc(F)c5)c(Cl)c4)c3c2)o1 [Lapatinib] (partner 2 µM),relative viability,NCI-H1944; first compound 0.0002 µM,0.545
same,relative viability,NCI-H1944; first compound 0.000632 µM,0.667
same,relative viability,NCI-H1944; first compound 0.002 µM,0.579
same,relative viability,NCI-H1944; first compound 0.006325 µM,0.242
same,relative viability,NCI-H1944; first compound 0.02 µM,0.112
same,relative viability,HOP-62; first compound 0.0002 µM,0.828
same,relative viability,HOP-62; first compound 0.000632 µM,0.448
same,relative viability,HOP-62; first compound 0.02 µM,0.112
same,relative viability,A-427; first compound 0.0002 µM,0.947
same,relative viability,A-427; first compound 0.000632 µM,1.02
same,relative viability,A-427; first compound 0.002 µM,0.961
same,relative viability,A-427; first compound 0.006325 µM,0.211
same,relative viability,A-427; first compound 0.02 µM,0.162
same,relative viability,PC-3 [JPC-3]; first compound 0.0002 µM,0.44
same,relative viability,PC-3 [JPC-3]; first compound 0.000632 µM,0.476
same,relative viability,PC-3 [JPC-3]; first compound 0.002 µM,0.385
same,relative viability,PC-3 [JPC-3]; first compound 0.006325 µM,0.295
same,relative viability,PC-3 [JPC-3]; first compound 0.02 µM,0.197
same,relative viability,SK-MES-1; first compound 0.0002 µM,0.437
same,relative viability,SK-MES-1; first compound 0.000632 µM,0.633
same,relative viability,SK-MES-1; first compound 0.002 µM,0.378
same,relative viability,SK-MES-1; first compound 0.02 µM,0.159
same,relative viability,NCI-H3122; first compound 0.0002 µM,0.979
same,relative viability,NCI-H3122; first compound 0.000632 µM,0.977
same,relative viability,NCI-H3122; first compound 0.002 µM,0.942
same,relative viability,NCI-H3122; first compound 0.006325 µM,0.296
same,relative viability,NCI-H3122; first compound 0.02 µM,0.242
same,relative viability,NCI-H596; first compound 0.0002 µM,0.995
same,relative viability,NCI-H596; first compound 0.000632 µM,0.957
same,relative viability,NCI-H596; first compound 0.002 µM,0.844
same,relative viability,NCI-H596; first compound 0.006325 µM,0.372
same,relative viability,NCI-H596; first compound 0.02 µM,0.35
same,relative viability,NCI-H1993; first compound 0.0002 µM,0.796
same,relative viability,NCI-H1993; first compound 0.000632 µM,0.824
same,relative viability,NCI-H1993; first compound 0.002 µM,0.627
same,relative viability,NCI-H1993; first compound 0.006325 µM,0.534
same,relative viability,NCI-H1993; first compound 0.02 µM,0.451
same,relative viability,NCI-H2009; first compound 0.0002 µM,0.965
same,relative viability,NCI-H2009; first compound 0.000632 µM,0.922
same,relative viability,NCI-H2009; first compound 0.002 µM,0.412
same,relative viability,NCI-H2009; first compound 0.006325 µM,0.195
same,relative viability,NCI-H2009; first compound 0.02 µM,0.12
same,relative viability,NCI-H2170; first compound 0.0002 µM,0.279
same,relative viability,NCI-H2170; first compound 0.000632 µM,0.265
same,relative viability,NCI-H2170; first compound 0.002 µM,0.194
same,relative viability,NCI-H2170; first compound 0.006325 µM,0.224
same,relative viability,NCI-H2170; first compound 0.02 µM,0.184
same,relative viability,NCI-H322M; first compound 0.0002 µM,0.511
same,relative viability,NCI-H322M; first compound 0.000632 µM,0.593
same,relative viability,NCI-H322M; first compound 0.002 µM,0.497
same,relative viability,NCI-H322M; first compound 0.006325 µM,0.46
same,relative viability,NCI-H322M; first compound 0.02 µM,0.293
same,relative viability,LXF-289; first compound 0.0002 µM,0.926
same,relative viability,LXF-289; first compound 0.000632 µM,0.847
same,relative viability,LXF-289; first compound 0.002 µM,0.393
same,relative viability,LXF-289; first compound 0.006325 µM,0.137
same,relative viability,LXF-289; first compound 0.02 µM,0.109
same,relative viability,ABC-1; first compound 0.0002 µM,1.21
same,relative viability,ABC-1; first compound 0.000632 µM,1.12
same,relative viability,ABC-1; first compound 0.002 µM,1.14
same,relative viability,ABC-1; first compound 0.006325 µM,0.797
same,relative viability,ABC-1; first compound 0.02 µM,0.577
same,relative viability,LK-2; first compound 0.0002 µM,0.843
same,relative viability,LK-2; first compound 0.000632 µM,0.662
same,relative viability,LK-2; first compound 0.002 µM,0.244
same,relative viability,LK-2; first compound 0.006325 µM,0.248
same,relative viability,LK-2; first compound 0.02 µM,0.148
same,relative viability,HARA; first compound 0.0002 µM,0.517
same,relative viability,HARA; first compound 0.000632 µM,0.302
same,relative viability,HARA; first compound 0.006325 µM,0.0686
same,relative viability,HARA; first compound 0.02 µM,0.0783
same,relative viability,NCI-H2228; first compound 0.0002 µM,0.641
same,relative viability,NCI-H2228; first compound 0.000632 µM,0.184
same,relative viability,NCI-H2228; first compound 0.002 µM,0.255
same,relative viability,NCI-H2228; first compound 0.006325 µM,0.267
same,relative viability,NCI-H2228; first compound 0.02 µM,0.16
same,relative viability,NCI-H1792; first compound 0.0002 µM,0.741
same,relative viability,NCI-H1792; first compound 0.000632 µM,0.85
same,relative viability,NCI-H1792; first compound 0.002 µM,0.522
same,relative viability,NCI-H1792; first compound 0.02 µM,0.0831
same,relative viability,EMC-BAC-2; first compound 0.0002 µM,0.735
same,relative viability,EMC-BAC-2; first compound 0.000632 µM,0.613
same,relative viability,EMC-BAC-2; first compound 0.002 µM,0.337
same,relative viability,EMC-BAC-2; first compound 0.006325 µM,0.278
same,relative viability,EMC-BAC-2; first compound 0.02 µM,0.209
same,relative viability,SW 1573; first compound 0.0002 µM,1.06
same,relative viability,SW 1573; first compound 0.000632 µM,0.946
same,relative viability,SW 1573; first compound 0.002 µM,0.321
same,relative viability,SW 1573; first compound 0.006325 µM,0.256
same,relative viability,SW 1573; first compound 0.02 µM,0.192
same,relative viability,NCI-H727; first compound 0.0002 µM,0.854
same,relative viability,NCI-H727; first compound 0.000632 µM,0.787
same,relative viability,NCI-H727; first compound 0.002 µM,0.371
same,relative viability,NCI-H727; first compound 0.006325 µM,0.26
